Where a SMILES comes first, the peptide text is derived from it. [ ]: non-standard residue; d: D form. Dopa = N[C@@H](Cc1ccc(O)c(O)c1)C(=O)O
Assays:
[1] = PK of LD following 18-hr SC administration of LD-Tyr in a formulation comprising ethanol (Example 22); type: in vivo, domestic pig; settings: for AUC(0-t) / Cmax / Tmax: pig, plasma, analyte LD-Tyr, 18-hr continuous SC, formulation comprising ethanol
Experimental: The objective of this study is to determine the pharmacokinetics (PK) of LD-Tyr following an 18-hr continuous subcutaneous (SC) administration in domestic pigs of a formulation comprising 30& LD-Tyr and ethanol. Table 53 provides the LD-Tyr formulation tested in this study.
Animals were dosed with 2700 or 5400 mg of LD-Tyr in the formulation of Table 53 in an 18-hr continuous subcutaneous administration in an infusion volume of 9 or 18 ml (9 mL×2 sites).

[2] = tested on: red blood cells (RBC); test: Blood/plasma ratio, partitioning into red blood cells, human blood ex vivo; type: in vitro ADME; settings: human blood
[3] = tested on: red blood cells (RBC); test: Blood/plasma ratio, partitioning into red blood cells, rat blood ex vivo; type: in vitro ADME
[4] = PK of formulations with varying concentrations of LD-Tyr and CD (Example 16); type: in vivo, domestic pig; settings: female, pig, plasma, sc, analyte LD-Tyr, 18-hour continuous SC infusion
Experimental: (§1) A series of PK and local site reaction studies was completed in domestic pigs using several concentrations LD-Tyr formulations comprising varying amounts of CD, as detailed in Table 37, and dosing regimens, as detailed in Table 38. The PK profile of LD-Tyr, as well as the LD resulting therefrom, was determined following 18-hour continuous SC infusion to female domestic pigs. Each formulation was administered at one infusion site per animal using a Crono-ND infusion pump (Canè SpA Medical Technology, Rivoli, Italy) connected to an infusion set (Accu-chek®, FlexLink, Roche).
(§2) Blood samples for the determination of LD-Tyr and LD plasma levels were collected from the pigs at the following timepoints: […]

[5] = PK following bolus and 2-hr continuous SC administration of 30% LD-Tyr (Example 18); type: in vivo, domestic pig; settings: pig; for AUC(0-t) / Cmax / Tmax: female, plasma, sc, analyte LD-Tyr, 30/1 % w/v, bolus and 2-hr continuous SC administration
Experimental: as §1, with “local-tox” for “local site reaction”, “42,” for “37,”, “43. […]” for “38. The PK profile of LD-Tyr, as well as the LD resulting therefrom, was determined following 18-hour continuous SC infusion to female domestic pigs.”
Blood samples for the determination of LD-Tyr and LD plasma levels were collected from the pigs at the following timepoints:
0 (pre-dose), 10 min (end of bolus), 15 min, 30 min, 45 min, 60 min, 75 min, 90 min, 120 min and 240 min following the beginning of the bolus administration.

[6] = Maximal Tolerated Dose (MTD), bolus SC; type: in vivo; settings: in vivo; study MTD Exp 001, Rat/SD, bolus SC, 90, 150, 300, 625 mg/kg
Experimental: (§3) In vivo non-clinical safety studies were conducted in both the rat and minipig. Additionally, an assessment of the local infusion site reaction of LD-Tyr was performed as part of a PK study in domestic pigs.

[7] = tested on: Rat/SD; test: Maximal Tolerated Dose (MTD), bolus SC; type: in vivo; settings: study MTD Exp 001, Rat/SD, bolus SC, highest dose (625 mg/kg), males
Experimental: as §3

[8] = PK of high concentration LD-Tyr formulations comprising TRIS, 0.5% CD (Example 15B); type: in vivo, domestic pig; settings: female, pig, plasma, sc, analyte LD-Tyr, 18-hour continuous SC infusion
Experimental: (§4) A series of PK and local-tox studies was completed in domestic pigs using several high concentration LD-Tyr formulations comprising 0.5% CD and varying amounts of TRIS, as detailed in Table 33, and dosing regimens, as detailed in Table 34. The PK profile of LD-Tyr as well as the LD resulting therefrom was determined following 18-hour continuous SC infusion to female domestic pigs. Each formulation was administered at one infusion site per animal using a Crono-ND infusion pump (Canè SpA Medical Technology, Rivoli, Italy) connected to an infusion set (Accu-chek®, FlexLink, Roche).
as §2

[9] = in vivo; settings: female, pig, sc, analyte LD-Tyr
Experimental: as §4, with “PK” for “PK and local-tox”, “several” for “several high concentration”, “formulations,” for “formulations comprising 0.5% CD and varying amounts of TRIS,”, “26,” for “33,”, “27.” for “34.”
as §2

[10] = Effect of various additives on stability of a 20% LD-Tyrosine-L-Arginine based formulation; type: physicochemical
[11] = 2700 mg, LD-Tyr/CD daily dose 2700/117 mg, n = 5
[12] = 5400 mg, LD-Tyr/CD daily dose 5400/234 mg, n = 3
[13] = 2640 mg/day, LD-Tyr/CD 44/1 % w/v, daily dose 2640/60 mg, n = 4
[14] = 2700 mg/day, LD-Tyr/CD 30/0.5 % w/v, daily dose 2700/45 mg, n = 5
[15] = 2700 mg/day, LD-Tyr/CD 30/[…] w/v, daily dose 2700/135 mg, n = 5
[16] = bolus volume 0.7 mL, bolus dose 210/7 mg, daily dose 510/17 mg
[17] = bolus volume 1.2 mL, bolus dose 360/12 mg, daily dose 660/22 mg
[18] = bolus volume 1.7 mL, bolus dose 510/17 mg, daily dose 810/27 mg
[19] = LD-Tyr/CD 30/0.5 % w/v, daily dose 2775/37.5 mg, n = 2
[20] = LD-Tyr/CD 37/0.5 % w/v, daily dose 2640/30 mg, n = 3
[21] = LD-Tyr/CD 44/0.5 % w/v, daily dose 2700/45 mg, n = 1

N[C@@H](Cc1ccc(O)c(O)c1)C(=O)N[C@@H](Cc1ccc(O)cc1)C(=O)O [LD-Tyr, levodopa-tyrosine (LD-Tyr) conjugate of the formula (II)] (H-[Dopa]-Tyr-OH)
dose proportionality ([1]; 2700 and 5400 mg, 18-hr continuous SC administration): dose proportionality
AUC(0-t) [1, 11]: 8210 ± 4120 ng·h/mL
Cmax [1, 11]: 707 ± 283 ng/mL
Tmax [1, 11]: 14 h
AUC(0-t) [1, 12]: 21200 ± 8570 ng·h/mL
Cmax [1, 12]: 1610 ± 902 ng/mL
Tmax [1, 12]: 14 h
RBC binding [2]: no RBC binding
KRBC/PL ([2]; all measured): below one
KRBC/PL versus time of incubation ([3]; rat blood): increased with the time of incubation
RBC binding ([3]; rat blood): limited RBC binding
partition coefficient between RBC and plasma (KRBC/PL) ([3]; rat blood, 50, 150 and 2500 ng/mL): below five
AUC(0-t) [4, 13]: 8130 ng·h/mL
Cmax [4, 13]: 738 ng/mL
Tmax [4, 13]: 11.6 h
AUC(0-t) [4, 14]: 5450 ng·h/mL
Cmax [4, 14]: 453 ng/mL
Tmax [4, 14]: 8.8 h
AUC(0-t) [4, 15]: 13500 ng·h/mL
Cmax [4, 15]: 986 ng/mL
Tmax [4, 15]: 12.4 h
AUC(0-t) [5, 16]: 1180 ng·h/mL
Cmax [5, 16]: 573 ng/mL
Tmax [5, 16]: 1.3 h
AUC(0-t) [5, 17]: 1630 ng·h/mL
Cmax [5, 17]: 933 ng/mL
Tmax [5, 17]: 0.9 h
AUC(0-t) [5, 18]: 2430 ng·h/mL
Cmax [5, 18]: 1350 ng/mL
Tmax [5, 18]: 1.2 h
systemic exposure to LD versus bolus injection volume ([5]; in vivo): dose-proportional increase
MTD [6]: 300 mg/kg
Mortality [7]: Mortality (1/4 males)
AUC(0-t) [8, 19]: 4800 ng·h/mL
Cmax [8, 19]: 445 ng/mL
Tmax [8, 19]: 10 h
AUC(0-t) [8, 20]: 5600 ng·h/mL
Cmax [8, 20]: 491 ng/mL
Tmax [8, 20]: 15 h
AUC(0-t) [8, 21]: 534 ng·h/mL
Cmax [8, 21]: 49.6 ng/mL
Tmax [8, 21]: 2 h
Tmax [9]: 10.4 h
solubility of the LD-Tyr (rank order of cosolvents) [10]: DMA>Ethanol>PEG 300

— patent US20240207410A1, “STABILIZED LIQUID COMPOSITIONS COMPRISING A LEVODOPA-TYROSINE CONJUGATE AND USES THEREOF” (NeuroDerm, Ltd., priority 2021, published 2024)
